Measured values as given in patent US20100016262A1, “Compositions and methods for reducing hepatotoxicity associated with drug administration and treating non-alcoholic fatty liver disease, non-alcoholic steatohepatitis and associated cirrhosis” (YALE UNIVERSITY, priority 2007, published 2010).
“Also recorded” adds a separate entry of the source.

How the values were obtained:
[1] = test system: mice and rats; conditions: aspirin 200-600 mg/kg, dose range toxic to humans; cited from earlier work
[2] = biological target: T1, NALP3 inflammasome (Mus musculus, UniProt Q8R4B8); assay: Uric acid (MSU crystal) peritonitis, model of NALP3 inflammasome activation; type: in vivo; conditions: low dose aspirin (60 mg/l) in drinking water for three days before MSU 3 mg/mouse ip; lavage after 3 hours; P<0.0001
T1 construct: endogenous in cells; host or cells: living C57BL/6 wild-type mice (peritoneal cavity, in vivo)
Description: • Animals. C57BL/6 mice were purchased from commercial sources. NALP3 −/−, IL-18 −/− ASC −/−, IPAF −/− and TLR9−/− mice were backcrossed nine generations onto the C57BL/6 background. Caspase 1 −/− mice were backcrossed 5-6 generations onto the C57BL/6 background. These mice have been described previously(39, 40). IL-1β was neutralized in by using the anti-IL-1β antibody from clone B 122 (a gift of R. Schreiber, Washington University) at a dose of 0.2 mg/mouse iv twice a day for a total of 48 hours after giving APAP. Control mice received Armenian hamster isotype control antibody. For survival experiments animals were euthanized when they became moribund using criteria of lack of response to stimuli or lack of righting reflex. Animal protocols were approved by the Yale University animal care and use committee. [include references for IPAF−/− (M. Lara-Tejero et al. JEM 2006) and IL-18−/−. Need to add TLR9−/− and TLR3−/−] • Acetaminophen induced hepatotoxicity. APAP (Sigma, MO) solution was made fresh for each experiment in PBS at 20 mg/ml and heated in a water bath to 55° C. to dissolve. APAP was dosed at 500 mg/kg and injected I.P after 15 hrs of starvation. […] Neutrophil infiltration was evaluated by flow cytometry. […]

[3] = test system: wild-type mice; assay: Acetaminophen (APAP) induced hepatotoxicity in mice (500 mg/kg ip); type: in vivo, mouse
Description: • Animals. C57BL/6 mice were purchased from commercial sources. NALP3 −/−, IL-18 −/− ASC −/−, IPAF −/− and TLR9−/− mice were backcrossed nine generations onto the C57BL/6 background. Caspase 1 −/− mice were backcrossed 5-6 generations onto the C57BL/6 background. These mice have been described previously(39, 40). IL-1β was neutralized in by using the anti-IL-1β antibody from clone B 122 (a gift of R. Schreiber, Washington University) at a dose of 0.2 mg/mouse iv twice a day for a total of 48 hours after giving APAP. Control mice received Armenian hamster isotype control antibody. For survival experiments animals were euthanized when they became moribund using criteria of lack of response to stimuli or lack of righting reflex. Animal protocols were approved by the Yale University animal care and use committee. [include references for IPAF−/− (M. Lara-Tejero et al. JEM 2006) and IL-18−/−. Need to add TLR9−/− and TLR3−/−] • Acetaminophen induced hepatotoxicity. APAP (Sigma, MO) solution was made fresh for each experiment in PBS at 20 mg/ml and heated in a water bath to 55° C. to dissolve. APAP was dosed at 500 mg/kg and injected I.P after 15 hrs of starvation. Animals were euthanized by ketamine/xylazine injection at 12 hours for collection of serum, isolation of liver lymphocytes or collection of liver tissue for histology, or they were observed every four hours for 72 hours until they reached criteria for euthanasia (lack of response to stimuli or lack of righting reflex). • Aspirin/clopidogrel/SC-560. Aspirin (Sigma, MO) was made fresh for each experiment. For dosing prior to APAP it was dissolved in single deionized water at 60 mg/l and heated to 42° C. with rapid stirring to dissolve, then rapidly placed in an ice water bath to cool. Aspirin in water was given to the mice 60-72 hours prior to APAP injection. Assuming water consumption of 3-5 ml per day this dose would be equivalent to a 300-500 mg dose in an 80 kg adult human. For co-administration of APAP and aspirin, aspirin was gavaged at a dose of 6 mg/kg in a volume of 100 ul of water immediately after ip injection of APAP. Clopidogrel (Gilead Pharmaceuticals, CA.) was dissolved in PBS at 6 mg/ml and administered by gavage of 100 ul, 30 mg/kg, every 24 hours beginning 48 hours prior and ending 24 hours after APAP injection. Cox-1 inhibitor (SC-560). SC-560 (Cayman chemical, MI) was dissolved at 50 mg/ml in DMSO and further dissolved in PBS in order to gavage a dose of 5 mg/kg in 100 ul. It was administered twice per day beginning 60 hours prior to Tylenol and continued for 48 hours after APAP injection as previously established(41). • Uric Acid Peritonitis. Peritonitis was induced with uric acid crystals as previously described by injecting 3 mg of MSU intraperitoneally per mouse(27). Three hours after injection peritoneal lavage was performed on mice euthanized by isoflurane inhalation. Neutrophil infiltration was evaluated by flow cytometry. The percent of Gr-1 (BD Pharmingen, CA) positive cells was multiplied by the total cell counts. • Liver sinusoidal endothelial cell (LSEC) isolation. After in-situ pronase digestion the non-parenchymal cell suspension is centrifuged for 5 min at 100 g to remove most of the parenchymal cells. This process is repeated until no pellet is observed. The supernatant enriched in LSEC is centrifuged for 10 min at 350 g. The pellet is resuspended in PBS and centrifuged for 10 min at 350 g. The cells are resuspended in PBS and layered (3.3 ml) on the top of two-step percoll gradient (put the 5 ml of 50% percoll at the bottom and put the 6.6 ml of 25% percoll at the top). The gradients are centrifuged at 900 g for 20 min and the intermediate layer included LSEC is collected and cultured in the media (EGM™-2 MV—Microvascular Endothelial Cell Medium-2, CAMBREX, Charles City, Iowa). • ODN2088 and IRS 954 injection.

[4] = test system: THP1 cells; assay: LPS stimulation of THP1 cells, real-time PCR for pro-IL-1β; type: cell-based, human; conditions: overnight with aspirin (1.5 mM, 0.15 mM), then LPS 10 μg/ml for 8 hours; P<0.05
[5] = aspirin pre-treatment, 12 hours after APAP, p<0.03
[6] = aspirin treatment, after APAP, p<0.005

T1 sequence (Q8R4B8 whole entry): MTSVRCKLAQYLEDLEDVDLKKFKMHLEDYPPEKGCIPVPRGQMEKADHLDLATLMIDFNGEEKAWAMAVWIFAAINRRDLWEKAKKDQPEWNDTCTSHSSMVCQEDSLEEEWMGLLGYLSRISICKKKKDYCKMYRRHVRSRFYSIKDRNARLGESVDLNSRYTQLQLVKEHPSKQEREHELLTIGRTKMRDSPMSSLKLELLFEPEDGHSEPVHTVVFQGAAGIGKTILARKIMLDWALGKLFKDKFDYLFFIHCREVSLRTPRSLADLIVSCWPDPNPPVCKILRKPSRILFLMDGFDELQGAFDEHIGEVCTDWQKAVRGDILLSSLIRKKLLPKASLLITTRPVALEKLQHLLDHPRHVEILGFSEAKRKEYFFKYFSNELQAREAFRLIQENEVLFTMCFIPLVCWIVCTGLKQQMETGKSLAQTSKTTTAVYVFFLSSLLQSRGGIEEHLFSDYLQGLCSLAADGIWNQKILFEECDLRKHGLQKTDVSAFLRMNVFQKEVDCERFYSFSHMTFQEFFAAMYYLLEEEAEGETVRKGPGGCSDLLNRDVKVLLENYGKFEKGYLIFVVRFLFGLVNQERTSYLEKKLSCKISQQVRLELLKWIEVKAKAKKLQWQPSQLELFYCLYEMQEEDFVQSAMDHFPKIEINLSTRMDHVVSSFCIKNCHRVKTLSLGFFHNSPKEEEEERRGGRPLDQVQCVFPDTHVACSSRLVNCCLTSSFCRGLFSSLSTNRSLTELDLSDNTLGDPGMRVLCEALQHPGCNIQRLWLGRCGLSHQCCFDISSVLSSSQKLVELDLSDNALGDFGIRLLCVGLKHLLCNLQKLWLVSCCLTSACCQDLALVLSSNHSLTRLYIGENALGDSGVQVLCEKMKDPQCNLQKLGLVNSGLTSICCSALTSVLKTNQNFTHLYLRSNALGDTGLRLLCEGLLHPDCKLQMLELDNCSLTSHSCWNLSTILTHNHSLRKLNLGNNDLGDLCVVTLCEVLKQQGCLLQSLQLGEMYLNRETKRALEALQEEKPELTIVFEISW

## CC(=O)Oc1ccccc1C(=O)O [aspirin, acetylsalicylic acid]
[1]
  liver injury from APAP: reduce liver injury
  survival from APAP: not improve survival
[2]
  neutrophil exudates (Gr-1 positive neutrophils in peritoneal lavage): eightfold reduction
[3]; ASA in drinking water, after APAP, p<0.02
  serum IL-1β levels (ELISA): significant reduction
[3]; aspirin 60 mg/l in drinking water for 3 days before APAP 500 mg/kg ip, n=17 vs control n=13, P<0.02
  survival after APAP: markedly improved survival
[3]; aspirin given concordantly with APAP, 6 mg/kg by gavage immediately after APAP, control 22% ±19%, P<0.04
  survival: 43% ±11%
[3]; aspirin in drinking water for three days before APAP, 12 hours after APAP
  liver histology (H&E), liver injury and hemorrhage: markedly improved; also recorded: significant reduction in APAP induced liver injury and hemorrhage
[3]; [5]
  pro-IL-1β message, whole liver (real-time PCR): reduced to normal levels
  pro-IL-18 message, whole liver (real-time PCR): reduced to normal levels
[3]; aspirin pre-treatment, 12 hrs after APAP, P<0.04
  serum ALT: significantly lower
[3]; [6]
  IFN-γ expression, whole liver (real-time PCR): reduced
  TNF-α expression, whole liver (real-time PCR): reduced
[4]
  pro-IL-1β transcript up-regulation by LPS: reduced

## COc1ccc(-n2nc(C(F)(F)F)cc2-c2ccc(Cl)cc2)cc1 [SC-560]
[3]; SC-560 5 mg/kg gavage twice daily from 60 hours before to 48 hours after APAP, n=10 vs PBS n=10, P<0.97
  survival after APAP (protection against APAP toxicity): did not protect

## COC(=O)[C@H](c1ccccc1Cl)N1CCc2sccc2C1 [clopidogrel]
[3]; clopidogrel 30 mg/kg gavage every 24 hrs from 48 hours before to 24 hours after APAP, n=15 vs PBS n=15, P<0.31
  survival after APAP (protection against APAP toxicity): did not protect
